Patent US9845482B2, “Compositions and methods for enhancing bioenergetic status in female germ cells” (The General Hospital Corporation, priority 2011, dated 2017)

Key:
[1] = system: MII oocytes of aged female mice (C57BL/6); test: Dietary supplementation of aged female mice: spindle abnormalities and chromosomal misalignment in MII oocytes; type: in vivo; conditions: for chromosomal misalignment in MII oocytes (change) / percentage of spindle abnormalities in MII oocytes (change): compared to Hist 12 M; for chromosomal misalignment, present in % of oocytes / spindle abnormalities, present in % of oocytes: diet for 3 months, apigenin 0.5 g/kg, luteolin 0.5 g/kg, SRT-1720 2 g/kg
Experimental: Confocal analysis of α-tubulin and DNA distribution were examined. Superovulated oocytes were denuded of cumulus cells, briefly incubated in Acidified Tyrode's Solution (Irvine Scientific, Santa Ana, Calif., USA) to soften the zona pellucida, and immunostained using mouse anti-α-tubulin antibody (Sigma Aldrich Corporation, St. Louis, Mo., USA) followed by goat anti-mouse IgG conjugated with Alexa Fluor-488 (Life Technologies, Carlsbad, Calif.). Oocytes were mounted using Vectashield containing propidium iodide (PI; Vector Laboratories) and analyzed by confocal microscopy.
(§1) Female mice (8 months old, strain C57BL/6) were maintained on a 12:12 light dark cycle and provided ad-libitum access to water and food. Conditions within rooms were maintained at 21°±1° C. with 50%±20% relative humidity. Mice were placed on the experimental diets at 8.5 months of age and were maintained for 3 months on the diets. All diets were custom made, ordered from Research Diets: OpenStandard Diet (20 kcal % Protein, 15 kcal % Fat and 65 kcal % Carbohydrate) and the experimental groups consisted of regular OpenStandard Diet, OpenStandard Diet+Apigenin at 0.5 g/kg of body weight, OpenStandard Diet+Luteolin at 0.5 g/kg, and OpenStandard Diet+SRT-1720 at 2 g/kg. Food intake was measured weekly and average weight gain was assessed every two weeks. Each experimental group consisted of 12 randomly allocated mice. When mice were euthanized an additional group of 3-month old C57BL/6 females (3 M) were used as positive controls. In all groups, oocyte numbers were assessed following hormonal stimulation for superovulation.
(§2) Methods for determining spindle abnormalities and chromosomal misalignment are described above in Example 8. Abnormal mitochondrial distribution was determined to be present in 16.13% of oocytes from 3 M mice, 46% of oocytes from Hist 12 M mice, 7.7% of oocytes following supplementation with apigenenin, 12% of oocytes following supplementation with luteolin and 6.9% of oocytes following supplementation with SRT-1720. Spindle abnormalities were determined to be present in 18.3% of oocytes in 3 M mice, 60% of oocytes in Hist 12 M mice, 32% of oocytes following supplementation with apigenenin, 32% of oocytes following supplementation with luteolin and 32.8% of oocytes following supplementation with SRT-1720. Chromosomal misalignment was determined to be present 18.3% of oocytes in 3 M mice, 62% of oocytes in Hist 12 M mice, 44% of oocytes from mice supplemented with apigenenin, 40% of oocytes following supplementation with luteolin and 40.9% of oocytes following supplementation with SRT-1720.

OSCs from mice = test: Screen of mouse OSCs for compounds that enhance mitochondrial function (mtDNA, ATP, mitochondrial mass, membrane potential, gene expression); type: cell-based; conditions: 24 hours; for activity above the baseline (DMSO alone), scored as a positive result: 25 or 50 μM (berberine 5 μM and 25 μM)
Text: Female infertility due to chemotherapy, aging and premature ovarian failure (POF) is due in part to a decline in mitochondrial function in oocytes and OSCs. Accordingly, OSCs from mice were used to screen for small compounds that enhance mitochondrial function (“bioenergetic status”) in female germline cells. Assays for enhancing mitochondrial function included mtDNA content, ATP, NAD+/NADH, mitochondrial mass, mitochondrial membrane potential, and gene expression of known mitochondrial mass regulators and electron transport chain components.
All the compounds were dissolved in DMSO. For screening purposes the cells were treated with the vehicle (0.001% DMSO) or with 25 or 50 μM of each compound (except for berberine, which the concentrations used for the screen were 5 μM and 25 μM) for 24 hours. For validation of the top 6 hits, cells were treated with vehicle (0.001% DMSO) or either 5 or 25 μM of each compound for 24 hours. For the gene expression profile, the cells were treated with the concentration that was considered to work better in the previous validation assays.
Mitochondrial membrane potential was measured with a fluorescent probe, Tetramethylrhodamine methyl ester (TMRM) (Sigma) as described before (Rolo A. P. Biochim. Biophys. Acta 2003 1637: 127-132). Briefly the cells were loaded with 6.6 μM TMRM in HBSS buffer at 37° C. for 15 minutes in the dark. The supernatant was then aspirated, and the cells returned to the original volume with KHH. TMRM is a membrane-permeable cationic fluorophore that accumulates electrophoretically in mitochondria in proportion to their mitochondrial membrane potential (Ehrenberg B. V. et al. Biophys. J. 1988 53:785-794). Cell suspensions (200 μl containing 10^5 cells) were loaded into 96-well plates and fluorescence measured using excitation and emission wavelengths of 485 and 590 nm, respectively. Mitochondrial membrane potential was estimated, taking into account the complete depolarization caused by carbonyl cyanide p-(trifluoromethoxy)phenylhydrazone (FCCP).
For mtDNA analysis, total DNA was extracted with DNeasy blood and tissue kit (QIAGEN). mtDNA was amplified using primers specific for the mitochondrial cytochrome c oxidase subunit 2 (COX2) gene and normalized to genomic DNA by amplification of the ribosomal protein s18 (rps18) nuclear gene. Primers were designed using the IDT software (IDT).
ATP content was measured using a luciferase-based assay with a commercial kit according to the manufacturer's instructions (Roche Applied Science, Penzberg, Germany) and normalized to protein content in each sample.
Mitochondrial mass was evaluated using the fluorescent probe N-nonyl acridine orange (NAO), briefly the cells were incubated in culture media containing 10 nM of NAO for 30 minutes at 37° C. in the dark. The cells were then trypsinized and resuspended in culture media without NAO. The NAO fluorescence intensity was then determined by flow cytometry on the FACSCALIBUR® (BD Biosciences, San Jose, Calif., USA) using the 488 nm laser.
For gene expression analysis, RNA from skeletal muscle tissue and C2C12 cells were extracted with RNeasy mini kit (QIAGEN) according to the instructions and quantified using the NanoDrop 1000 spectrophotometer (Thermo Scientific). cDNA was synthesized with the iSCRIP cDNA synthesis kit (BioRad) using 200 ng of RNA. Quantitative RT-PCR reactions were performed using 1 μM of primers and LIGHTCYCLER® 480 SYBR® Green Master (Roche Applied Science, Penzberg, Germany) on an LIGHTCYCLER® 480 detection system (Roche Applied Science, Penzberg, Germany). Calculations were performed by a comparative method (2-ΔΔCT) using actin as an internal control. Primers were designed using the IDT software (IDT).

[2] = system: oocytes of aged female mice (C57BL/6); test: Dietary supplementation of aged female mice: mitochondrial distribution in oocytes; type: in vivo; conditions: for percentage of oocytes exhibiting abnormal mitochondrial clustering (change): compared to Hist 12 M; for abnormal mitochondrial distribution, present in % of oocytes: diet for 3 months, apigenin 0.5 g/kg, luteolin 0.5 g/kg, SRT-1720 2 g/kg
Experimental: Whether mitochondrial aggregation, which has been linked to the decline in oocyte quality with advancing age (Tarín et al. Biol Reprod 2001 65:141-150), was affected by caloric intake was assessed. Oocytes were denuded of cumulus cells, incubated in MitoTracker Red CMRox (Life Technologies), and processed for microscopic analysis. Levels of ATP in individual MII oocytes were determined using a commercially available bioluminescent assay kit under the manufacturer's specifications (Sigma Aldrich Corporation, St. Louis, Mo., USA).
as §1, §2

SMILES	chromosomal misalignment in MII oocytes (change) [1]	percentage of spindle abnormalities in MII oocytes (change) [1]	chromosomal misalignment, present in % of oocytes [1] [%]	spindle abnormalities, present in % of oocytes [1] [%]	mitochondrial parameters (OSCs from mice)	activity above the baseline (DMSO alone), scored as a positive result (OSCs from mice)	percentage of oocytes exhibiting abnormal mitochondrial clustering (change) [2]	abnormal mitochondrial distribution, present in % of oocytes [2] [%]
O=C(Nc1ccccc1-c1cn2c(CN3CCNCC3)csc2n1)c1cnc2ccccc2n1 [SRT-1720, N-[2[3-(piperazin-1-ylmethyl)imidazo[2,1-b][1,3]thiazol-6-yl]phenyl]quinoxaline-2-carboxamide]	reduced chromosomal misalignment	reduced percentage of spindle abnormalities	40.9	32.8	increase mitochondrial parameters in a beneficial way	activity above the baseline	reduced	6.9
O=c1cc(-c2ccc(O)cc2)oc2cc(O)cc(O)c12 [apigenin, 5,7-Dihydroxy-2-(4-hydroxyphenyl)-4H-1-benzopyran-4-one]	reduced chromosomal misalignment	reduced percentage of spindle abnormalities	44	32	increase mitochondrial parameters in a beneficial way	activity above the baseline	reduced	7.7
O=c1cc(-c2ccc(O)c(O)c2)oc2cc(O)cc(O)c12 [luteolin, 2-(3,4-Dihydroxyphenyl)-5,7-dihydroxy-4-chromenone]	reduced chromosomal misalignment	reduced percentage of spindle abnormalities	40	32	increase mitochondrial parameters in a beneficial way	activity above the baseline	reduced	12
